Measurements: article PMC6511942, “Exploitation of Antibiotic Resistance as a Novel Drug Target: Development of a β-Lactamase-Activated Antibacterial Prodrug” (Journal of Medicinal Chemistry, 2019)
In brackets after ≈: the same amount, converted by molar mass. Several values for one entry are separate records, joined by “and”; a condition that tells them apart may be missing. Identical values can stand only once. Like-named read-outs stand apart in the source and are kept apart here.

Assays:
[1] = system: E. faecalis ATCC29212 and GW01; experiment: Antibacterial activity against E. faecalis strains without β-lactamase; type: cell-based; settings: two strains that did not express β-lactamase
[2] = system: Ec16 (CTX-M-15, ciprofloxacin sensitive); type: cell-based, E. coli; settings: strain EC16, ciprofloxacin sensitive
[3] = system: Ec11 (CTX-M-15, ciprofloxacin sensitive); experiment: microbe, parasite or virus in culture; type: cell-based, E. coli
CFT073 E. coli cells WT = experiment: MIC, E. coli CFT073 WT; type: cell-based; settings: Escherichia coli
CFT073 + pSU18 (pEMP) = experiment: microbe, parasite or virus in culture; type: cell-based, E. coli
E. coli CFT073 pEMP = experiment: Bactericidal activity (survival by CFU counts), CFT073 pEMP; type: cell-based; settings: 78 nM, CFU counts over time
Method: Finally, the ability of prodrug 35 to kill bacteria rather than arrest growth was evaluated. […]
determined as the lowest concentration of antibiotic that inhibited visible bacterial growth.
OD595 measurements were recorded on a BioRad 1Mark Microplate Reader. Measurements were background corrected against the no-inoculum control and normalized to the no-drug […]
Determination of bactericidal activity
Stationary-phase bacteria were inoculated into 3 ml MHB containing no antibiotic, […]
subsequently incubated at 37 °C with shaking (180 r.p.m.) and bacterial viability determined […]
been shown previously to be bactericidal.
Recombinant β-lactamase assay
Each compound was incubated for 1 hour at room temperature in 100 mM NaPO4 (pH 7) ± 0.5 M NaOH. The wavelength at which the difference between un-hydrolysed and hydrolysed compound was the greatest was selected (typically 263 nm) and a compound concentration vs. absorbance standard curve was generated. Compounds, typically 250 μM in assay buffer (100 mM NaPO4 (pH 7)), were dispensed into a Corning 96-well UV transparent flat bottom plate. Recombinant Amp-C in assay buffer was added immediately before incubatio n in the microplate reader at 37 °C. UV absorbance was measured every 20 s for 1 h on a BMG LABTECH SPECTROstarNano. Kinetic parameters were determined by half -life analysis.
NMR β-lactamase hydrolysis assay […]

E. coli CFT073 pCTX-M-1 = experiment: Bactericidal activity (survival by CFU counts), CFT073 pCTX-M-1; type: cell-based; settings: 78 nM
[4] = system: CFT073 + pSU18 + CTX-M-1 (pCTX); experiment: microbe, parasite or virus in culture; type: cell-based, E. coli
[5] = system: Ec12 (CTX-M-15, ciprofloxacin resistant); experiment: microbe, parasite or virus in culture; type: cell-based, E. coli
CFT073 pNDM (NDM-1) = experiment: microbe, parasite or virus in culture; type: cell-based, E. coli; settings: Escherichia coli, read-out: MIC value pNDM
CFT073 pKPC (KPC-3) = experiment: microbe, parasite or virus in culture; type: cell-based, E. coli; settings: Escherichia coli, read-out: MIC value pKPC
[6] = system: Ec13 (CTX-M-15, ciprofloxacin resistant); experiment: microbe, parasite or virus in culture; type: cell-based, E. coli
recombinant DNA gyrase = target: T1, recombinant DNA gyrase (Escherichia coli, UniProt P0AES4+P0AES6); experiment: Recombinant DNA gyrase supercoiling assay ± CTX-M-15; type: biochemical, E. coli
T1 construct: purchased Inspiralis

[7] = system: Ec19 (CTX-M-15, ciprofloxacin resistant); experiment: microbe, parasite or virus in culture; type: cell-based, E. coli
[8] = system: Ec17 (CTX-M-15, ciprofloxacin sensitive); experiment: microbe, parasite or virus in culture; type: cell-based, E. coli

T1 sequence (P0AES4 whole entry, one chain of several): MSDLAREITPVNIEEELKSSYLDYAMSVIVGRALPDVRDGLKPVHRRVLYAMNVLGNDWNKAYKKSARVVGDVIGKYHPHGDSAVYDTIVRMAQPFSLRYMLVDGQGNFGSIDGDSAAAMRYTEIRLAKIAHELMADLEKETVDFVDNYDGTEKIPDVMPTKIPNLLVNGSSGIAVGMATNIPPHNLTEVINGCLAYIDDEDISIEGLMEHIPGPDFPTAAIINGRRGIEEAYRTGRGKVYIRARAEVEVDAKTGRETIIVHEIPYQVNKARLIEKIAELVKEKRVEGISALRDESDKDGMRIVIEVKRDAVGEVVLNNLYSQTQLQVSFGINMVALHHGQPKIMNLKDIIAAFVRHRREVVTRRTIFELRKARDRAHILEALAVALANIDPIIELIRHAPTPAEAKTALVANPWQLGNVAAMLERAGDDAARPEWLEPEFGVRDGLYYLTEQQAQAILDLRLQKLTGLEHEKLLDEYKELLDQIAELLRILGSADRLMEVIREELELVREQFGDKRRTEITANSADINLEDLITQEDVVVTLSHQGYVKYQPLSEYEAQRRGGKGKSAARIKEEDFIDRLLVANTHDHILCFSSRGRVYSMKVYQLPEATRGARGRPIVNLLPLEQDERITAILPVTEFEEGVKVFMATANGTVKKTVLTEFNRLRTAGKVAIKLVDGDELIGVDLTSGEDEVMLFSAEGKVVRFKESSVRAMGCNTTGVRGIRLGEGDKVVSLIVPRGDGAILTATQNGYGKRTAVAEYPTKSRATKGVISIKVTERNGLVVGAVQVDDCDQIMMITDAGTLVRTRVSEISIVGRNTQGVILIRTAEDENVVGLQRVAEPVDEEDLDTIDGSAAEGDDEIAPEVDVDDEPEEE

CC(=O)N[C@@H]1C(=O)N2C(C(=O)O)=C(COC(=O)c3cn(C4CC4)c4cc(N5CCNCC5)c(F)cc4c3=O)CS[C@H]12 [compound 35, (6R,7R)-7-Acetamido-3-(((1-cyclopropyl-6-fluoro-4-oxo-7-(piperazin-1-yl)-1,4-dihydroquinoline-3-carbonyl)oxy)methyl)-8-oxo-5-thia-1-azabicyclo[4.2.0]oct-2-ene-2-carboxylic Acid]
activity against E. faecalis compared to ciprofloxacin [1]: reduced activity compared to ciprofloxacin | antibacterial activity (in words) [2]: confirmed | MIC ([3]; Escherichia coli, read-out: MIC value Ec11): 0.63 µM (≈ 0.369 µg/mL) | antibacterial activity (in words) ([3]; strain EC11, ciprofloxacin sensitive): confirmed | MIC (CFT073 E. coli cells WT; read-out: MIC value WT, CFT073 WT): 0.312 µM (≈ 0.183 µg/mL) | MIC (CFT073 E. coli cells WT; CFT073 WT, read-out: MIC value WT): 0.18 µg/mL and 0.31 µM | decrease in activity (MIC) compared to ciprofloxacin 31 (CFT073 + pSU18 (pEMP); CFT073 WT and pEMP, absence of β-lactamase): 10 fold | MIC assay in the presence of human serum (CFT073 + pSU18 (pEMP); CFT073 pEMP, 10 % normal human serum): equivalent to those obtained in the absence of serum | MIC (CFT073 + pSU18 (pEMP); Escherichia coli, read-out: MIC value pEMP, CFT073 empty plasmid): 0.312 µM (≈ 0.183 µg/mL) | growth of CFT073 expressing empty plasmid (E. coli CFT073 pEMP): growth comparable to no treatment controls | killing activity in E. coli expressing CTX-M-1 (E. coli CFT073 pCTX-M-1; CFU counts over time): almost identical to free ciprofloxacin | greater killing of E. coli expressing CTX-M-1 compared with bacteria not expressing the enzyme (E. coli CFT073 pCTX-M-1; 6 h incubation, CFU counts): > 100 fold | MIC assay in the presence of human serum ([4]; CFT073 pCTX-M-1, 10 % normal human serum): equivalent to those obtained in the absence of serum | MIC higher than ciprofloxacin 31 ([4]; CFT073 strains expressing CTX-M-1, NDM1 or KPC): 2 fold | MIC ([4]; Escherichia coli, read-out: MIC value pCTX, CFT073 pCTX): 0.04 µg/mL and 0.063 µM | MIC ([5]; Escherichia coli, read-out: MIC value Ec12): > 5 µM | arrest in bacterial growth (in words) ([5]; strain EC12, ciprofloxacin resistant): no arrest in bacterial growth | MIC (CFT073 pNDM (NDM-1)): 0.04 µg/mL and 0.063 µM | MIC (CFT073 pKPC (KPC-3)): 0.04 µg/mL and 0.063 µM | MIC ([6]; Escherichia coli, read-out: MIC value Ec13): > 5 µM | arrest in bacterial growth (in words) ([6]; strain EC13, ciprofloxacin resistant): no arrest in bacterial growth | inhibition of DNA gyrase (recombinant DNA gyrase; absence of CTX-M-15): not observed | reduction of DNA gyrase activity (recombinant DNA gyrase; presence of CTX-M-15, 1 μM compound): > 50% | MIC ([7]; Escherichia coli, read-out: MIC value Ec19): > 5 µM | arrest in bacterial growth (in words) ([7]; strain EC19, ciprofloxacin resistant): no arrest in bacterial growth | MIC ([8]; Escherichia coli, read-out: MIC value Ec17): 2.5 µM (≈ 1.46 µg/mL) | antibacterial activity (in words) ([8]; strain EC17, ciprofloxacin sensitive): confirmed
